Data set [1] deals with RTA. The conditions noted are these: read-out: IC50 for RTA; cited from earlier work.
Data set [2] has as its target Shiga toxin type 1 subunit A (StxA1) (Bacteriophage H30, UniProt P10149). As to the kind of experiment: biochemical. The format is biochemical, Escherichia coli.
Data set [3] concerns Vero cells. As to conditions: for concentrations at which the compound was itself cytotoxic: African green monkey.

Each structure is given as a SMILES string. Read-outs that look alike come from different tables or passages of the source.

Chain of Shiga toxin type 1 subunit A (StxA1) (P10149 23-273 limits assumed): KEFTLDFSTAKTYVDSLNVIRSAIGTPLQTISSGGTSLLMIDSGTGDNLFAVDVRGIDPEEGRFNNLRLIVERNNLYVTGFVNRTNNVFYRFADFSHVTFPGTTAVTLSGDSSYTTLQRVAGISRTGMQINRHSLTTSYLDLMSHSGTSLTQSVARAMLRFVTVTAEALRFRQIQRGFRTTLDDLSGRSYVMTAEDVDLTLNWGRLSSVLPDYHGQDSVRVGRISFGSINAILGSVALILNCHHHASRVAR

For orientation: IC50 means the concentration that inhibits the measured activity by half. As for `Cc1nc2c(=O)[nH]c(N)nc2o1` [8-methyl-9-oxaguanine], the IC50 in data set [1] was roughly 400 µM.

Compound `Cc1ccc(/C=C/C(=O)NC2CCCc3ccccc32)o1` (stereo not drawn) [Compound 1, (E)-3-(5-methylfuran-2-yl)-N-(1,2,3,4-tetrahydronaphthalen-1-yl)prop-2-enamide] came in with an IC50 in data set [2] of roughly 700 µM. In data set [3], the “cytotoxicity of the compound itself” value is listed as “did not exhibit significant cytotoxicity”.

With `CC(C)Nc1nc(C#N)nc(NC(C)C)n1` [Compound 2, 4,6-bis(propan-2-ylamino)-1,3,5-triazine-2-carbonitrile], in data set [3], the “cytotoxicity of the compound itself” value was “moderately cytotoxic”. In the case of `COC(=O)C(C)N1C(=O)S/C(=C/c2ccc(N3CCCCCC3)o2)C1=O` (stereo not drawn) [Compound 3, methyl 2-[(5E)-5-[[5-(azepan-1-yl)furan-2-yl]methylidene]-2,4-dioxo-1,3-thiazolidin-3-yl]propanoate], the “concentrations at which the compound was itself cytotoxic” value (“concentrations” for short) in data set [3] was “less than 20 μM”.

On to `CS(=O)(=O)c1nc2ccccc2n1Cc1cccc2ccccc12` [Compound 4, 2-methylsulfonyl-1-(naphthalen-1-ylmethyl)benzimidazole], for which the “concentrations” value in data set [3] was greater than 30 µM. Regarding `O=C(OCc1ccc(F)cc1)c1cc(-c2ccco2)nc2ccccc12` [Compound 8, 4-fluorophenyl methyl 2-(furan-2-yl)quinoline-4-carboxylate], the half-maximal inhibitory concentration (IC50) in data set [2] (read-out: StxA1 IC50) was 40 µM; in data set [2] (read-out: apparent IC50 for StxA1), roughly 40 µM. The compound `O=C(CSc1nnc[nH]1)N(Cc1ccc(F)cc1)C1CCCCC1` [Compound C17-1, N-cyclohexyl-N-[(4-fluorophenyl)methyl]-2-(4H-1,2,4-triazol-3-ylsulfanyl)acetamide] had an IC50 in data set [2] of 500 µM. In addition, in data set [3], the “concentrations” value is greater than 100 µM. Consider `Nc1cc(O)c(N)c(O)n1` [DDP, 2,5-diamino-4-6-dihydroxypyridine], for which, in data set [1], the IC50 is 2200 µM. Regarding `Nc1nc2ncc(CNc3ccc(C(=O)O)cc3)nc2c(=O)[nH]1` [pteroic acid (PTA), pteroic acid], in data set [1], the IC50 was roughly 600 µM.

The record behind these values is PMC2902711 (Toxicon : official journal of the International Society on …, 2010).
